Assay results reported in the supplement of paper PMC10627819.

Experiments:
S. pneumoniae D39V = assay: fitness (endpoint OD595 vs no drug) (fraction); higher = more growth
How it was run: (§1)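 Fitness is computed from the optical density at which cultures reach stationary phase, divided by the robust mean of no-drug control wells. Any value above 1 is set to 1. Cultures started at OD595 0.01 in 384-well plates with TSB, LB Lennox or CY at 37 °C, and OD595 was read every 30 min for 14 h against a first-reading background.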

S. aureus DSM 20231 = assay: as above
How it was run: as §1
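Also: OD595 on entry to stationary phase over no-drug wells; at most 1.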

CN(C)[C@@H]1C(O)=C(C(N)=O)C(=O)[C@@]2(O)C(O)=C3C(=O)c4c(O)ccc(Cl)c4[C@@](C)(O)[C@H]3C[C@@H]12 [Chlortetracycline] + CN[C@H](CC(C)C)C(=O)N[C@H]1C(=O)N[C@@H](CC(N)=O)C(=O)N[C@H]2C(=O)N[C@H]3C(=O)N[C@H](C(=O)N[C@H](C(=O)O)c4cc(O)cc(O)c4-c4cc3ccc4O)[C@H](O)c3ccc(c(Cl)c3)Oc3cc2cc(c3O[C@@H]2O[C@H](CO)[C@@H](O)[C@H](O)[C@H]2O[C@H]2C[C@](C)(N)[C@H](O)[C@H](C)O2)Oc2ccc(cc2Cl)[C@H]1O [Vancomycin]
Conditions	fitness
S. aureus DSM 20231, first compound 0.012 µg/mL, partner 0.1875 µg/mL	0.541
S. aureus DSM 20231, first compound 0.012 µg/mL, partner 0.375 µg/mL	0.499
S. aureus DSM 20231, first compound 0.012 µg/mL, partner 0.75 µg/mL	0.548
S. aureus DSM 20231, first compound 0.024 µg/mL, partner 0.375 µg/mL	0.28
S. aureus DSM 20231, first compound 0.048 µg/mL, partner 0.1875 µg/mL	0.103
S. aureus DSM 20231, first compound 0.048 µg/mL, partner 0.375 µg/mL	0.0854
S. aureus DSM 20231, first compound 0.048 µg/mL, partner 0.75 µg/mL	0.0806
S. pneumoniae D39V, first compound 0.012 µg/mL, partner 0.03125 µg/mL	0.883
S. pneumoniae D39V, first compound 0.012 µg/mL, partner 0.0625 µg/mL	0.903
S. pneumoniae D39V, first compound 0.012 µg/mL, partner 0.125 µg/mL	0.706
S. pneumoniae D39V, first compound 0.024 µg/mL, partner 0.03125 µg/mL	0.832
S. pneumoniae D39V, first compound 0.024 µg/mL, partner 0.0625 µg/mL	0.829
S. pneumoniae D39V, first compound 0.048 µg/mL, partner 0.03125 µg/mL	0.734
S. pneumoniae D39V, first compound 0.048 µg/mL, partner 0.0625 µg/mL	0.688
S. pneumoniae D39V, first compound 0.375 µg/mL, partner 0.125 µg/mL	0.0536
S. pneumoniae D39V, first compound 0.375 µg/mL, partner 0.25 µg/mL	0.0553
S. pneumoniae D39V, first compound 0.375 µg/mL, partner 0.5 µg/mL	0.0628
S. pneumoniae D39V, first compound 0.75 µg/mL, partner 0.125 µg/mL	0.0485
S. pneumoniae D39V, first compound 0.75 µg/mL, partner 0.25 µg/mL	0.0618
S. pneumoniae D39V, first compound 0.75 µg/mL, partner 0.5 µg/mL	0.0842
S. pneumoniae D39V, first compound 1.5 µg/mL, partner 0.125 µg/mL	0.0391
S. pneumoniae D39V, first compound 1.5 µg/mL, partner 0.25 µg/mL	0.0305
S. pneumoniae D39V, first compound 1.5 µg/mL, partner 0.5 µg/mL	0.0442

S. aureus DSM 20231, first compound 0.006 µg/mL, one replicate
Conditions	fitness
partner 0.1875 µg/mL	0.806
partner 0.375 µg/mL	0.776
partner 0.75 µg/mL	0.79

CN(C)[C@@H]1C(O)=C(C(N)=O)C(=O)[C@@]2(O)C(O)=C3C(=O)c4c(O)ccc(Cl)c4[C@@](C)(O)[C@H]3C[C@@H]12 [Chlortetracycline] + CO/N=C(\C(=O)N[C@@H]1C(=O)N2C(C(=O)[O-])=C(C[N+]3(C)CCCC3)CS[C@H]12)c1csc(N)n1 [Cefepime]
Conditions	fitness
S. aureus DSM 20231, first compound 0.012 µg/mL, partner 0.125 µg/mL	0.63
S. aureus DSM 20231, first compound 0.012 µg/mL, partner 0.25 µg/mL	0.617
S. aureus DSM 20231, first compound 0.012 µg/mL, partner 0.5 µg/mL	0.636
S. aureus DSM 20231, first compound 0.024 µg/mL, partner 0.125 µg/mL	0.388
S. aureus DSM 20231, first compound 0.048 µg/mL, partner 0.125 µg/mL	0.274
S. aureus DSM 20231, first compound 0.048 µg/mL, partner 0.25 µg/mL	0.304
S. aureus DSM 20231, first compound 0.048 µg/mL, partner 0.5 µg/mL	0.274
S. pneumoniae D39V, first compound 0.012 µg/mL, partner 0.007 µg/mL	0.964
S. pneumoniae D39V, first compound 0.012 µg/mL, partner 0.014 µg/mL	0.949
S. pneumoniae D39V, first compound 0.012 µg/mL, partner 0.028 µg/mL	0.836
S. pneumoniae D39V, first compound 0.024 µg/mL, partner 0.007 µg/mL	0.936
S. pneumoniae D39V, first compound 0.024 µg/mL, partner 0.014 µg/mL	0.86
S. pneumoniae D39V, first compound 0.024 µg/mL, partner 0.028 µg/mL	0.811
S. pneumoniae D39V, first compound 0.048 µg/mL, partner 0.007 µg/mL	0.659
S. pneumoniae D39V, first compound 0.048 µg/mL, partner 0.014 µg/mL	0.661
S. pneumoniae D39V, first compound 0.048 µg/mL, partner 0.028 µg/mL	0.693
S. pneumoniae D39V, first compound 0.375 µg/mL, partner 0.0078 µg/mL	0.0772
S. pneumoniae D39V, first compound 0.375 µg/mL, partner 0.0155 µg/mL	0.049
S. pneumoniae D39V, first compound 0.375 µg/mL, partner 0.031 µg/mL	0.0797
S. pneumoniae D39V, first compound 0.75 µg/mL, partner 0.0078 µg/mL	0.0925
S. pneumoniae D39V, first compound 0.75 µg/mL, partner 0.0155 µg/mL	0.0687
S. pneumoniae D39V, first compound 0.75 µg/mL, partner 0.031 µg/mL	0.0749
S. pneumoniae D39V, first compound 1.5 µg/mL, partner 0.0078 µg/mL	0.0695
S. pneumoniae D39V, first compound 1.5 µg/mL, partner 0.0155 µg/mL	0.0769
S. pneumoniae D39V, first compound 1.5 µg/mL, partner 0.031 µg/mL	0.0751

S. aureus DSM 20231, first compound 0.006 µg/mL, one replicate
Conditions	fitness
partner 0.125 µg/mL	0.792
partner 0.25 µg/mL	0.774
partner 0.5 µg/mL	0.722

CN(C)[C@@H]1C(O)=C(C(N)=O)C(=O)[C@@]2(O)C(O)=C3C(=O)c4c(O)ccc(Cl)c4[C@@](C)(O)[C@H]3C[C@@H]12 [Chlortetracycline] + CO[C@@]12[C@H](COC(N)=O)C3=C(C(=O)C(C)=C(N)C3=O)N1C[C@@H]1N[C@@H]12 [Mitomycin C]
fitness
Conditions	first compound 0.012 µg/mL	first compound 0.024 µg/mL	first compound 0.048 µg/mL	first compound 0.375 µg/mL	first compound 0.75 µg/mL	first compound 1.5 µg/mL
S. aureus DSM 20231, partner 0.0156 µg/mL	0.55	0.288	0.0746	–	–	–
S. aureus DSM 20231, partner 0.0312 µg/mL	0.52	0.224	0.0614	–	–	–
S. aureus DSM 20231, partner 0.0625 µg/mL	0.384	0.174	0.17	–	–	–
S. pneumoniae D39V, partner 0.001075 µg/mL	0.924	0.895	0.824	–	–	–
S. pneumoniae D39V, partner 0.002 µg/mL	–	–	–	0.0654	0.0249	0.0576
S. pneumoniae D39V, partner 0.00215 µg/mL	0.853	0.832	0.788	–	–	–
S. pneumoniae D39V, partner 0.004 µg/mL	–	–	–	0.0793	0.0699	0.0536
S. pneumoniae D39V, partner 0.0043 µg/mL	0.687	0.713	0.645	–	–	–
S. pneumoniae D39V, partner 0.008 µg/mL	–	–	–	0.0339	0.0265	0.0168

S. aureus DSM 20231, first compound 0.006 µg/mL, one replicate
Conditions	fitness
partner 0.0156 µg/mL	0.65
partner 0.0312 µg/mL	0.64
partner 0.0625 µg/mL	0.542
